Where two headings read alike, the source gives them in different places.
Columns and labels:
[1] = Pharmacokinetics after intravenous bolus and oral gavage; format: in vivo, Swiss albino mice; details: for F: 50 mg/kg vs IV 5 mg/kg
[2] = test system: chronic EAE induced by MOG35-55 peptide; assay: In vivo test on model of chronic EAE (Experimental Autoimmune Encephalomyelitis); parameters: species or system C57BL/6 female mice
[3] = mouse, in vivo, IV (5 mg/kg), Swiss albino mice, mean
[4] = mouse, in vivo, PO (50 mg/kg), Swiss albino mice, mean
[5] = oral, first 10 days from immunization, versus placebo group
[6] = IV, 5 mg/kg, Swiss albino mice, mean
[7] = PO, 50 mg/kg, Swiss albino mice, mean

Fc1ccc(C2=C(CN3CCCC3)COc3ccc(OCC4CC4)cc32)cc1 [AX-104, 1-((6-(cyclopropylmethoxy)-4-(4-fluorophenyl)-2H-chromen-3-yl)methyl)pyrrolidine]
F ([1]; PO, Swiss albino mice): 24
bioavailability ([1]; Swiss albino, mouse, in vivo, 50 mg/kg, oral gavage vs intravenous bolus, text says rats, n=3, read-out: total bioavailability after oral administration): 24%
AUC(0-inf) [1, 3]: 750 ng·h/mL
AUC(0-t) [1, 3]: 724 ng·h/mL
clearance [1, 3]: 111 mL/min/kg
half-life [1, 3]: 8.45 h
Cmax ([1]; mouse, in vivo, IV (5 mg/kg), Swiss albino mice, mean, read-out: Cmax): 1280 ng/mL
Vd ([1]; mouse, in vivo, IV (5 mg/kg), Swiss albino mice, mean, read-out: Vss): 20.6 L/kg
AUC(0-inf) [1, 4]: 1790 ng·h/mL
AUC(0-t) [1, 4]: 1760 ng·h/mL
Cmax ([1]; mouse, in vivo, PO (50 mg/kg), Swiss albino mice, mean, read-out: Cmax): 930 ng/mL
Tmax ([1]; mouse, in vivo, PO (50 mg/kg), Swiss albino mice, mean, read-out: Tmax): 0.25 h
clinical score of the disease (scale 0-6), FIG. 2 [2, 5]: reduced score when compared to the placebo group
weight of the animals (weight loss), FIG. 3 [2, 5]: weight loss significantly reduced
impact of the symptoms associated to the model ([2]; overall results of the EAE study): significantly reducing the impact of the symptoms

COc1ccc2c(c1)C(c1ccc(F)cc1)=C(CN1CCCC1)CO2 [ECRA-24]
AUCint [1, 6]: 840.27 ng·h/mL
AUClast [1, 6]: 838.43 ng·h/mL
CL [1, 6]: 99.17 mL/min/kg
Cmax [1, 6]: 1168.89 ng/mL
T1/2 [1, 6]: 3.36 h
Vss [1, 6]: 11.37 L/kg
F ([1]; PO, Swiss albino mice): 4
AUCint [1, 7]: 299.69 ng·h/mL
AUClast [1, 7]: 297.03 ng·h/mL
Cmax [1, 7]: 171.56 ng/mL
T1/2 [1, 7]: 4.93 h
Tmax [1, 7]: 0.25 h
